# From article PMC8196714, “Design, Radiosynthesis and Preliminary Biological Evaluation in Mice of a Brain-Penetrant ^18F-Labelled σ2 Receptor Ligand” (International Journal of Molecular Sciences, 2021)
# Key:
# [1] = Quantification of radiometabolites in mouse tissues at 30 min p.i.; assay type: in vivo, CD-1 mice
# Experimental: From quantitative analysis of the radio-chromatograms, which indicated the presence of solely [^18F]RM273 (>99%; n = 3; Supplemental Information Table S1 and Figure S2), we concluded that upon the presence of an intact BBB, the PET image derived from [^18F]RM273 in the brain was not affected by confounding radiometabolites.
# About 30 MBq [^18F]RM273 dissolved in about 150 µL isotonic saline was administered intravenously as a bolus in the tail vein of in awake female CD-1 mice weighing about 33 g (n = 3). At 30 min p.i., the animals were anesthetized and blood was withdrawn by retrobulbar bleeding using glass capillaries. Immediately afterwards, the animals were euthanized by cervical dislocation, and released urine sampled. Blood plasma was obtained from the whole blood sample by centrifugation (2 min, 8000 rpm, room temperature). In addition, the brain, the liver, and the pancreas were isolated and homogenized in 1 mL demineralized water on ice (1000 rpm, 10 strokes; glass vessel, PTFE plunger; Potter S, B. Braun Biotech International, Goettingen, Germany). Bone marrow (n = 2) was isolated by flushing the femur with about 200 µL isotonic saline.
# The samples were further processed for subsequent radio-chromatographic analyses. Two consecutive extractions were performed as duplicate for plasma and brain determinations. Plasma and brain samples were added to an ice-cold MeOH/H2O mixture (9:1, v/v). The samples were vortexed for 3 min, incubated on ice for 5 min, and centrifuged at 12,000 rpm for 5 min. Supernatants were collected, the precipitates were re-dissolved in 100 µL of extraction solvent, and the extraction procedure was repeated. The activities of supernatants and precipitates were measured in a γ-counter (1480 WIZARD, Fa. Perkin Elmer), and the extraction efficiencies were calculated as ratio of the radioactivity in the supernatant to the radioactivity in the original sample (supernatant + precipitate). The supernatants from both extractions were combined, concentrated at 70 °C under argon stream up to a remaining volume of 100 µL, and subsequently analyzed by analytical radio-HPLC with a gradient system as applied in Section 5.2.2.
# 3. Quantification of radiometabolites in mouse
# Table 1. Radiometabolite analysis of [18F]RM273 in different tissues 30 min p.i.
# Experiment 1 Experiment 2
# Extraction Intact Extraction Intact Extraction Intact efficiency tracer efficiency tracer (%) efficiency tracer
# Figure 2. Representative radio-HPLC chromatograms of the metabolism studies of [18F]RM273 in different tissues obtained at 30 min p.i.. (A) Brain, (B) Plasma, (C) Pancreas, (D)
# Liver and (E) Bone marrow. Conditions:
# Reprosil-Pur C18-AQ (250 x 4.6 mm; 5 μm); gradient (eluent A 10% MeCN/20 mM
# NH4OAcaq.; eluent B 90 % MeCN/20 mM
# (1 picture or pasted object on this page, not shown here)
# [2] = In vitro stability of the radioligand in saline, PBS and TRIS-HCl buffer; assay type: physicochemical; details: 37 °C
# Experimental: (§1) The in vitro stability of [^18F]RM273 was investigated in saline, phosphate-buffered saline (PBS), and TRIS-HCl buffer (50 mM, pH 7.4) at 37 °C for 2 h, and the radioligand remained intact (90%, 94%, and 100%, respectively; saline for 1 h: 95%). The logD7.4 of [^18F]RM273 was experimentally determined by the shake-flask method as 1.78 ± 0.22 (n = 3), which is well within the range of 1–3.5 recommended for brain targeting compounds [43].
# In vitro stability of [^18F]RM273 was determined in saline, phosphate-buffered saline (PBS), and TRIS (50 mM, pH 7.4) by incubation of approx. 5 MBq in 500 µL of each medium at 37 °C. Samples were taken after 30, 60, and 120 min and analyzed by analytical radio-HPLC with a gradient system as applied in Section 5.2.2.
# [3] = Lipophilicity (logD7.4), shake-flask method; assay type: physicochemical; details: n-octanol/PBS pH 7.4, shake-flask, n = 3
# Experimental: as §1
# LogD7.4 of [^18F]RM273 was experimentally determined in n-octanol/PBS; 0.01 M, pH 7.4) at room temperature by the shake-flask method. The measurement was performed twice in triplicate.
smiles,measurement,setting,value
COc1cc2c(cc1OC)CN(CCCCn1ccc3ccc([18F])nc31)CC2 [[^18F]RM273],Intact tracer,"[1]; Bone Marrow, Mouse 2",97%
same,Intact tracer,"[1]; Bone Marrow, Mouse 3",97%
same,Intact tracer,"[1]; Brain, Mouse 1",100%
same,Intact tracer,"[1]; Brain, Mouse 2",100%
same,Intact tracer,"[1]; Brain, Mouse 3",100%
same,Intact tracer,"[1]; Liver, Mouse 1",34%
same,Intact tracer,"[1]; Liver, Mouse 2",36%
same,Intact tracer,"[1]; Liver, Mouse 3",28%
same,Intact tracer,"[1]; Pancreas, Mouse 1",100%
same,Intact tracer,"[1]; Pancreas, Mouse 2",96%
same,Intact tracer,"[1]; Pancreas, Mouse 3",96%
same,Intact tracer,"[1]; Plasma, Mouse 1",23%
same,Intact tracer,"[1]; Plasma, Mouse 2",37%
same,Intact tracer,"[1]; Plasma, Mouse 3",28%
same,intact radioligand in brain,"[1]; mice, n = 3",> 99%
same,radioligand remained intact,"[2]; TRIS-HCl buffer (50 mM, pH 7.4), 2 h",100%
same,radioligand remained intact,"[2]; phosphate-buffered saline (PBS), 2 h",94%
same,radioligand remained intact,"[2]; saline, 1 h",95%
same,radioligand remained intact,"[2]; saline, 2 h",90%
same,logD,[3],1.78 ± 0.22
